Measurements as given in US20170258871A1, “COMBINED USE OF A TRKA INHIBITOR AND AN EPHA2 INHIBITOR FOR USING IN THE TREATMENT OF SOLID CANCERS, AND METHOD FOR THE PROGNOSIS OF SURVIVAL OF A PATIENT WHO HAS A SOLID CANCER” (UNIVERSITE DES SCIENCES ET TECHNOLOGIES DE LILLE, priority 2014, published 2017).

Legend:
[1] = test system: MDA-MB-231 HA-TrkA tumours; assay: Xenograft of MDA-MB-231 HA-TrkA in SCID mice, tumour volume (Experiment 1); assay type: in vivo; conditions: 3 injections every 3 days from day 14; CEP-701 10 mg/kg intraperitoneal, siEphA2 7.5 microg/mouse close to the tumour
Method: FIG. 9: A study of the inhibition of TrkA and EphA2 on tumour development in vivo. The tumours were developed without any intervention for 14 days and then subjected to 3 injections (every 3 days, black arrows) of solvent (control), CEP-701 (10 mg/kg), siEphA2 (7.5 microg/mouse) or CEP-701 (10 mg/kg) and siEphA2 (7.5 microg/mouse). The experiments were stopped 31 days after the first injection of the treatment for ethical considerations after the death of the control mice. A) The tumour volumes were evaluated by measuring the length (;) and the width (w) and then calculating the volume using the formula π/6×l×W×(l+w)/2; the Mann and Whitney test was carried out between the control group and CEP-701 (a), between the control groups and siEphA2 (b), between the control groups and CEP-701+siEphA2 (c), and between the groups siEphA2 and CEP-701+siEphA2 (d)*, P<0.05; **, P<0.01; ns: not significant. B) Study of the inhibition of the expression of receptors by siRNA on the overall survival of SCID mice. […] The tumour volumes were evaluated by measuring the length (l) and width (w) and then calculating the volume using the formula π/6×l×W×(l+w)/2. […] Significance was measured using the log-rank test (P=0.0022). […]
Experiment 1: the mice used were six-week old SCID females. […] The tumour volume was measured according to the following formula: π/6×length×width×(width+length)/2. […]

[2] = test system: Src; assay: Western blot of Src phosphorylation in MDA-MB-231 cells; assay type: cell-based
Method: (§1) FIG. 8: A study of the role of TrkA and EphA2 in the activation of proteins Akt and Src. Cells MDA-MB-231 were respectively treated with a TrkA inhibitor (K252a), an anti-EphA2 siRNA (siEphA2), an inhibitor of PI3-K (LY294002) and an inhibitor of Src (SKI-1).
(§2) A and D. Cells MDA-MB-231 HA-TrkA were treated with proNGF N.C. […] The phosphorylation of Akt and Src was determined by using phospho-specific antibodies. The equal charge was verified using Akt and Src antibodies.
(§3) C and F. The phosphorylation of Akt and Src was determined in the total lysates coming from cells MDA-MB-231 transfected with siEphA2 and treated for 30 minutes with proNGF N.C. (C) or NGF (F).
(§4) After treatment, the cells were lysed (lysis buffer: 40 mM HEPES pH 7.5; 1 mM EDTA pH 8.0; 120 mM NaCl; 10 mM NaPPi; 50 mM NaF; 1.5 mM Na3VO4; 1% Triton X 100; 0.1% SDS; 1 mM PMSF; 10% glycerol and 1/100 th of protease inhibitor cocktail (Sigma) (20 min; 4° C.)). The lysates were recovered and clarified by centrifugation (12,000 g; 10 min; 4° C.). The supernatant was then stored at −80° C. until use. The protein extracts were diluted to 2 μg·μL−1 in a Laemmli 1× buffer (7 min; 100° C.) then deposited and separated on SDS-PAGE (concentration gel 3.6% acrylamide and separation gel 7.5% to 10% acrylamide (thickness 1 mm); 180 V; 10 min then 200 V constant; until output of the migration front). The proteins separated by SDS-PAGE were transferred according to the semi-dry transfer method (buffer: 48 mM Tris base, 39 mM glycine, 1.64 mM SDS, 20% methanol (v/v); 14 V; 15 min per gel) or liquid (buffer: 25 mM Tris base and 192 mM glycine; 15% methanol (v/v); 100 V; 30 min) on nitrocellulose membranes (0.45 μm; Whatman; Germany) or PVDF (0.45 μm; Immobilon P; Millipore; France). The PVDF membrane was “activated” beforehand (methanol; 10 min; 20° C.). The membranes were then saturated (TBS-T; 5% BSA; 1 h; 20° C.) then incubated (16 h; 4° C.) with the chosen primary antibody. […] The membranes were placed in an image analyser (LAS 4000; Fuji) connected to a computer which allowed image generation (software Image Reader LAS 4000).
(§5) The antibody against EphA2 was sc-924 (Santa Cruz), the antibody against sortilin was BD Bioscience 612101, the antibody against TrkA was sc 14024 (Santa Cruz), the antibody against HA was MMS-101R (Covance), the antibody against Akt was Cell Signaling 4691, the antibody against phospho-Akt (Ser 473) was Cell Signaling 9271, the antibody against Src was Cell Signaling 2109 (WB), the antibody against PhosphoSrc (Tyr416) was Cell Signaling 2105 and the antibody against actin was Sigma A2066.
(§6) Proteins Akt and Src were both involved in the pro-invasive effect of proNGF. In order to identify the role of TrkA and EphA2 in the activation of proteins Akt and Src, cells MDA-MB-231 were treated respectively with a TrkA inhibitor (K252a), an anti-EphA2 siRNA (siEphA2) the sequence of which is presented in table 1, a PI3-K inhibitor (LY294002) (the activation of Akt in effect underlies that of PI3-K) and an inhibitor of Src (SKI-1).

[3] = test system: tumours xenografted with cells MDA-MB-231 overexpressing TrkA; conditions: previously demonstrated, ref (34); cited from earlier work
[4] = test system: Akt; assay: Western blot of Akt phosphorylation in MDA-MB-231 cells; assay type: cell-based; conditions: for effect on Akt activation induced by proNGF: proNGF N.C. 30 min, 10 nM K252a, 15 μM LY294002, 50 nM SKI-1 or siEphA2
Method: as §1, §2, §3, §4, §5, §6

[5] = NGF 30 min, 10 nM K252a or siEphA2

Row | SMILES | tumour volume / growth of xenografted tumours vs control [1] | effect on Src phosphorylation induced by NGF [2, 5] | growth of xenografted tumours [3] | effect on Akt phosphorylation induced by NGF [4, 5] | effect on Akt activation induced by proNGF [4] | effect on Src activation induced by proNGF ([2]; proNGF N.C. 30 min, 10 nM K252a, 15 μM LY294002, 50 nM SKI-1 or siEphA2)
1 | C[C@]12O[C@H](C[C@]1(O)CO)n1c3ccccc3c3c4c(c5c6ccccc6n2c5c31)CNC4=O [CEP-701, reference compound] | slightly, but not significantly, reduced | – | – | – | – | –
2 | COC(=O)[C@@]1(O)C[C@H]2O[C@]1(C)n1c3ccccc3c3c4c(c5c6ccccc6n2c5c31)C(=O)NC4 [K252a, reference compound] | – | inhibited this activation | reduces the growth of tumours | inhibited this activation | abolished the activation of Akt | –
3 | COc1cc2ncnc(Nc3ccc(Oc4ccccc4)cc3)c2cc1OC [SKI-1, reference compound] | – | – | – | – | does not affect the phosphorylation of Akt | inhibition of Src
